Data: publication PMC10683025, “Discovery of a Hydroxylamine-Based Brain-Penetrant EGFR Inhibitor for Metastatic Non-Small-Cell Lung Cancer” (Journal of Medicinal Chemistry, 2023)
Values after ≈ are worked out from the molar mass of the structure shown.

Experiments:
[1] = system: HCC827 (EGFR mutation = exon19del); assay: CellTiter-Glo cell viability assay; format: cell-based, human; conditions: 72 h, unadjusted for FBS
[2] = system: NCI-H3255 (EGFR mutation = L858R); assay: CellTiter-Glo cell viability assay; format: cell-based, human; conditions: 72 h, unadjusted for FBS
[3] = system: Ba/F3 EGFR-L858R/C797S cells; assay: CellTiter-Glo cell viability assay; format: cell-based; conditions: 72 h, unadjusted for FBS
Procedure: (§1) The A431, HCC827, SK-BR-3, ZR-75–30, AU565, and Caco-2 cell lines were obtained from ATCC. The NCI-H1975 cell line was obtained from SIBS. The NCI-H3255 cell line was obtained from CoBioer. Engineered Ba/F3 cell lines were obtained from Crown Bioscience. MCKII-MDR1 cells were obtained from The Netherlands Cancer Institute. HEK293 cells were obtained from Invitrogen. A431 cells were cultured in DMEM (Life Technologies) with 10% FBS. HCC827, NCI-H1975, and AU565 cells were cultured in RPMI1640 (Invitrogen) with 10% FBS. NCI-H3255 cells were cultured in BEGM (Lonza) with 10% FBS. Ba/F3 EGFR-del E746_A750/C797S and Ba/F3 EGFR-L858R/C797S cells were cultured in RPMI (Invitrogen) with 10% FBS. SK-BR-3 cells were cultured in McCoy’s 5a (Invitrogen) with 10% FBS. ZR-75-30 cells were cultured in RPMI1640 (Invitrogen) with 20% FBS. Caco-2 and MCKII-MDR1 culture information is given in the Permeability Studies section. HEK293 cells were cultured in DMEM (Gibco) with 10% FBS, 0.1 mM NEAA, 25 mM HEPES, 100 U/mL penicillin-streptomycin, μg/mL blasticidin, and 400 μg/mL Geneticin. All cells were cultured in a humidified incubator with 5% CO2 at 37 °C.
(§2) Viability assays using A431, HCC827, NCI-H1975, NCI-H3255, Ba/F3 EGFR-del E746_A750/C797S, Ba/F3 EGFR-L858R/C797S, AU565, SK-BR-3, and ZR-75-30 cells were performed at Crown BioScience. Cells were plated into 96-well plates at 1500–7000 cells per well and dosed in triplicate (n = 3) in a nine-point, 4-fold dilution series with compounds (0.15 nM to 10 μM) in DMSO and incubated for 72 h. After 72 h, cell viability was assayed by CellTiter-Glo Luminescent Viability Assay (Promega). Dose–response curves were generated and used to calculate the IC50 values which were calculated on GraphPad Prism from the nonlinear regression equation fitted with a sigmoidal dose response and are presented as mean ± SEM.

[4] = system: Ba/F3 EGFR-del E746_A750/C797S cells; assay: CellTiter-Glo cell viability assay; format: cell-based; conditions: 72 h, unadjusted for FBS
Procedure: as §1, §2

[5] = system: A431 cell line (overexpressed EGFRwt); assay: CellTiter-Glo cell viability assay; format: cell-based, human; conditions: 72 h, unadjusted for FBS
Procedure: as §1, §2

[6] = system: AU565 (HER2-positive breast cancer); assay: CellTiter-Glo cell viability assay; format: cell-based, human; conditions: 72 h, unadjusted for FBS
Procedure: as §1, §2

[7] = system: NCI-H1975 (EGFR mutation = L858R/T790M); assay: CellTiter-Glo cell viability assay; format: cell-based, human; conditions: 72 h, unadjusted for FBS
Procedure: as §1, §2

[8] = system: SK-BR-3 (HER2-positive breast cancer); assay: CellTiter-Glo cell viability assay; format: cell-based, human; conditions: 72 h, unadjusted for FBS
Procedure: as §1, §2

[9] = system: ZR-75-30 (HER2-positive breast cancer); assay: CellTiter-Glo cell viability assay; format: cell-based, human; conditions: 72 h, unadjusted for FBS
Procedure: as §1, §2

[10] = Lipophilicity, shake-flask; format: physicochemical; conditions: 1-octanol/PBS; 1-octanol and PBS (pH 7.4); read-out: logD7.4
Procedure: Compound lipophilicity was determined by Pharmaron, Inc. using the shake-flask method with 1-octanol and PBS (pH 7.4). Each compound was assessed in duplicate (n = 2) at 1 μM in a 96-well plate shaken at 25 °C and 2000 rpm for 2 h. Samples were analyzed by liquid chromatography and tandem mass spectrometry (LC-MS/MS).

Solubility assay = format: physicochemical; conditions: buffer, pH 7.4, aqueous buffer; read-out: Aq. Sol.
Procedure: Solubility was determined by Pharmaron, Inc. and each compound was assessed in duplicate (n = 2) by adding 15 μL of compound stock solution (10 mM in DMSO) into a 96-well plate along with 485 μL of buffer followed by shaking at 25 °C, 1100 rpm for 2 h. Wells were filtered, and samples (5 μL) were taken followed by dilution with an equal volume of DMSO (5 μL) and 490 μL of aqueous solution. Samples were analyzed by LC-MS/MS.

[11] = Metabolic stability in liver microsomes; format: in vitro ADME, human; conditions: human LM
[12] = Metabolic stability in liver microsomes; format: in vitro ADME, Sprague-Dawley rat; conditions: rat LM
[13] = Metabolic stability in hepatocytes; format: in vitro ADME, human; conditions: for Remaining Percentages: human hepatocytes
[14] = Metabolic stability in hepatocytes; format: in vitro ADME, Sprague-Dawley rat; conditions: rat hepatocytes
Plasma stability [15] = format: in vitro ADME, human; conditions: human plasma
Procedure: (§3) Assessment of compounds to determine stability in incubations containing plasma of human (Pharmaron) and Sprague-Dawley rat (IPHASE) was performed by Pharmaron, Inc. using the compound […] approach. Compounds were assessed in duplicate (n = 2) and incubated in plasma at 5 μM and samples (50 μL) were taken at 0, 15, 30, 60, and 120 min time points for analysis by LC-MS/MS. Peak area ratios were determined from the extracted ion chromatogram and the percent compound remaining at each time point was calculated by the following equation: [drawing 2] where peak area ratiot min is the peak area ratio of control and test compound at t min and peak area ratio0 min is the peak area ratio of control and test compound at zero time point.

Plasma stability [16] = format: in vitro ADME, Sprague-Dawley rat; conditions: rat plasma
Procedure: as §3

[17] = Plasma protein binding by equilibrium dialysis; format: in vitro ADME
Procedure: (§4) Plasma protein binding and brain tissue binding were determined by Pharmaron, Inc. using the equilibrium dialysis method. […] Following incubation, the samples were analyzed by LC-MS/MS and the concentrations of the compounds were determined in the buffer and plasma solution chambers.

[18] = Plasma protein binding by equilibrium dialysis; format: in vitro ADME, mouse
Procedure: as §4

[19] = Brain tissue binding by equilibrium dialysis; format: in vitro ADME; conditions: rat
Procedure: as §4

[20] = design: method as in PMID 33028591; conditions: single oral dose of 10 mg/kg in Han Wistar rats ref 18; cited from earlier work
P-gp and BCRP = system: P-gp and BCRP; design: method as in ref 17−20; conditions: ref 17−20; cited from earlier work
[21] = cited from earlier work
[22] = Sprague-Dawley, rat, rat plasma

N.N.[Cl][Pt][Cl] [Cisplatin, reference compound]
IC50 [1]: > 10 µM | IC50 [2]: > 10 µM | IC50 [3]: 0.411 ± 0.01 µM | IC50 [4]: 0.361 ± 0.015 µM | IC50 [5]: 4.15 µM | IC50 [6]: 2.57 µM | IC50 [7]: 8.8 µM | IC50 [8]: 1.96 µM | IC50 [9]: 4.18 µM

COc1cc2ncnc(Nc3ccc(F)c(Cl)c3)c2cc1OCCCN1CCOCC1 [Gefitinib (1), Gefitinib, reference compound]
logD at 2 h, 1 µM [10]: 3.7 | solubility kinetic at 2 h (Solubility assay): 4 µM (≈ 1.79 µg/mL) | Remaining Percentage ([11]; +Cofactors, 15 min): 39.75% | Remaining Percentage ([11]; +Cofactors, 30 min): 19.60% | Remaining Percentage ([11]; +Cofactors, 45 min): 12.23% | Remaining Percentage ([11]; +Cofactors, 60 min): 8.14% | Remaining Percentage ([11]; -Cofactors, 60 min): 100.00% | Remaining Percentage ([12]; +Cofactors, 15 min): 63.13% | Remaining Percentage ([12]; +Cofactors, 30 min): 37.48% | Remaining Percentage ([12]; +Cofactors, 45 min): 25.25% | Remaining Percentage ([12]; +Cofactors, 60 min): 19.26% | Remaining Percentage ([12]; -Cofactors, 60 min): 115.38% | Remaining Percentages ([13]; 15 min): 97.55% | Remaining Percentages ([13]; 30 min): 94.76% | Remaining Percentages ([13]; 60 min): 73.38% | Remaining Percentages ([13]; 90 min): 50.47% | Remaining Percentages ([13]; 120 min): 39.53% | half-life at 2 h, 1 µM ([13]; human, hepatocytes, read-out: HEP t1/2): 1.39 h | Remaining Percentages ([14]; 15 min): 66.86% | Remaining Percentages ([14]; 30 min): 59.92% | Remaining Percentages ([14]; 60 min): 39.44% | Remaining Percentages ([14]; 90 min): 21.69% | Remaining Percentages ([14]; 120 min): 13.94% | Remaining Percentages (Plasma stability [15]; 15 min): 103.40% | Remaining Percentages (Plasma stability [15]; 30 min): 103.92% | Remaining Percentages (Plasma stability [15]; 60 min): 101.33% | Remaining Percentages (Plasma stability [15]; 120 min): 104.45% | t1/2 (Plasma stability [15]; ∞ = no degradation): ∞ | Remaining Percentages (Plasma stability [16]; 15 min): 100.11% | Remaining Percentages (Plasma stability [16]; 30 min): 98.28% | Remaining Percentages (Plasma stability [16]; 60 min): 95.04% | Remaining Percentages (Plasma stability [16]; 120 min): 93.66% | t1/2 (Plasma stability [16]; ∞ = no degradation): ∞ | fraction unbound at 6 h, 5 μM ([17]; Sprague-Dawley, rat, plasma, 5 μM, read-out: fu,plasma% / %Unbound): 0.0249 | recovery at 6 h, 5 μM [17, 22]: 105% | remaining at 6 h, 5 μM [17, 22]: 105% | fraction unbound at 6 h, 5 μM ([17]; Sprague-Dawley, rat, rat plasma, read-out: %Bound (converted)): 0.0249 | recovery at 6 h, 5 μM ([17]; human, human plasma): 106% | remaining at 6 h, 5 μM ([17]; human, human plasma): 98.8% | fraction unbound at 6 h, 5 μM ([17]; human, human plasma, read-out: fu,plasma% / %Unbound (converted)): 0.0766 | fraction unbound at 6 h, 5 μM ([17]; plasma, human, 5 μM, read-out: fu,plasma% / %Unbound (converted)): 0.0766 | recovery at 6 h, 5 μM ([18]; CD-1, mouse, mouse plasma): 99.4% | remaining at 6 h, 5 μM ([18]; CD-1, mouse, mouse plasma): 98% | fraction unbound at 6 h, 5 μM ([18]; CD-1, mouse, mouse plasma, read-out: %Bound (converted)): 0.0781 | fraction unbound at 6 h, 5 μM ([18]; CD-1, plasma, mouse, 5 μM, read-out: fu,plasma% / %Unbound): 0.0781 | recovery at 6 h, 5 μM ([19]; Sprague-Dawley (SD), rat brain homogenate): 99.7% | fraction unbound at 6 h, 5 μM ([19]; Sprague-Dawley, brain homogenate, read-out: fu,brain% / %Unboundbrain): 0.006 | remaining at 6 h, 5 μM ([19]; Sprague-Dawley, rat brain homogenate): 105% | fraction unbound at 6 h, 5 μM ([19]; Sprague-Dawley, rat brain homogenate, read-out: %Boundbrain (converted)): 0.006 | Kp,uu (AUC0−16h) [20]: 0.0092 | efflux status against common efflux transporters (P-gp and BCRP): P-gp and BCRP Substrate

hydroxylamine
pKa [21]: 5.9
